# Experimental data as given in ChEMBL document CHEMBL1140276, “Synthesis of 4(5)-phenylimidazole-based analogues of sphingosine-1-phosphate and FTY720: discovery of potent S1P1 receptor agonists” (Bioorg Med Chem Lett, 2005).
# Biological target: T1, Sphingosine 1-phosphate receptor 5 (Homo sapiens, UniProt Q9H228)
# Assay: Effective concentration against sphingosine 1-phosphate receptor 5 determined by a [c-35S]-GTP binding assay
# T1 sequence (Q9H228 whole entry): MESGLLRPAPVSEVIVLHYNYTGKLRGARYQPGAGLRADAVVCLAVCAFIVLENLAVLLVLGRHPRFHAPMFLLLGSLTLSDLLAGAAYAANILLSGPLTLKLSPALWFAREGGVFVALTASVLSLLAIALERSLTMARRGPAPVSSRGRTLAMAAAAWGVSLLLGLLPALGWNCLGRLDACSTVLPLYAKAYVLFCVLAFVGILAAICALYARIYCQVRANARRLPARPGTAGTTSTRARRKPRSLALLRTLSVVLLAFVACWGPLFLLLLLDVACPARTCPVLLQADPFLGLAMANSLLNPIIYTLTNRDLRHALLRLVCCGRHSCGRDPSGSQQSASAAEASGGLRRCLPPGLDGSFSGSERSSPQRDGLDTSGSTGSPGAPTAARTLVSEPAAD
row,Compound,EC50 [nM]
1,CCCCCCCCc1ccc(-c2c[nH]c(C(N)(CO)COP(=O)(O)O)n2)cc1 (centres undefined),17
2,CCCCCCCCc1ccc(-c2c[nH]c(C(C)(N)COP(=O)(O)O)n2)cc1 (centres undefined),26
3,CCCCCCCCc1ccc(-c2c[nH]c([C@H](N)COP(=O)(O)O)n2)cc1,37

# Biological target: T2, Sphingosine 1-phosphate receptor 1 (Homo sapiens, UniProt P21453)
# T2 sequence (P21453 whole entry): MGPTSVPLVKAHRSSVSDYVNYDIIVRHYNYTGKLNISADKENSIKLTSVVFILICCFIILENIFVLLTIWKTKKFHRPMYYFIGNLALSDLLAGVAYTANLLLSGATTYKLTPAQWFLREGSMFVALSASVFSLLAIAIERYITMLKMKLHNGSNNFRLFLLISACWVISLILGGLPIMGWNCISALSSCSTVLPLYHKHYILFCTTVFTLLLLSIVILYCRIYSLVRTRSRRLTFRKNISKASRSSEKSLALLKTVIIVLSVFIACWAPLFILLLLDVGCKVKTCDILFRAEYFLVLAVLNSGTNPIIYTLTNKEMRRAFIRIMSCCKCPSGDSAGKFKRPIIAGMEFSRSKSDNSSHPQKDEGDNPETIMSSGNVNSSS
# Assay: Effective concentration against sphingosine-1-phosphate receptor 1 determined by a [c-35S]-GTP binding assay
row,Compound,EC50 [nM]
1,CCCCCCCCc1ccc(-c2c[nH]c(C(N)(CO)COP(=O)(O)O)n2)cc1 (centres undefined),7.9
2,CCCCCCCCc1ccc(-c2c[nH]c(C(C)(N)COP(=O)(O)O)n2)cc1 (centres undefined),4.7
3,CCCCCCCCc1ccc(-c2c[nH]c([C@H](N)COP(=O)(O)O)n2)cc1,7

# Biological target: T3, Sphingosine 1-phosphate receptor 4 (Homo sapiens) (UniProt O95977)
# T3 sequence (whole entry): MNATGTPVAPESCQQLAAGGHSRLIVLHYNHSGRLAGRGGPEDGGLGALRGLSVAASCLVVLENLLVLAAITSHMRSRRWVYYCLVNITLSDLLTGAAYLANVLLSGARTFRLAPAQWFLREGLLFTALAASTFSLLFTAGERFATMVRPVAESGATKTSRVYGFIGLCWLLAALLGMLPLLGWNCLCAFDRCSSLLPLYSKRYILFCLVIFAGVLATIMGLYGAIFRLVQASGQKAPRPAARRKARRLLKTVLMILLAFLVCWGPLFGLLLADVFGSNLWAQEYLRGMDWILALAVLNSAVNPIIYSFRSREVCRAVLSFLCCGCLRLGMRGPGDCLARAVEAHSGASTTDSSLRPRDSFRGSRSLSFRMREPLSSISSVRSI
# Assay: Maximal efficacy against sphingosine 1-phosphate receptor 4 determined by a [c-35S]-GTP binding assay; no agonist activity
row,Compound,Emax
1,CCCCCCCCc1ccc(-c2c[nH]c(C(C)(N)CO)n2)cc1 (centres undefined),0

# Biological target: T4, Sphingosine 1-phosphate receptor 2 (Homo sapiens, UniProt O95136)
# T4 sequence (O95136 whole entry): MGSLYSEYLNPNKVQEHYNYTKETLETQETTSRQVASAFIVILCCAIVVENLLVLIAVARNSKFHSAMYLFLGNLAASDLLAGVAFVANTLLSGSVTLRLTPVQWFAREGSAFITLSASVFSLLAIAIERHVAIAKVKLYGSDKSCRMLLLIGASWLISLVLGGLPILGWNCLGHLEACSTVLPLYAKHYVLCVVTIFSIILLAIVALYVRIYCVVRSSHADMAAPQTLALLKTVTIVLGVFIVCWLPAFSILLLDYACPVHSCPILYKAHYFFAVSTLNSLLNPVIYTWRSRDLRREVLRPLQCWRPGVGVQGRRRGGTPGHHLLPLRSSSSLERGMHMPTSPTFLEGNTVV
# Assay: Effective concentration against sphingosine 1-phosphate receptor 2 determined by a [c-35S]-GTP binding assay
row,Compound,EC50 [nM]
1,CCCCCCCCc1ccc(-c2c[nH]c(C(N)(CO)COP(=O)(O)O)n2)cc1 (centres undefined),18

# Biological target: T5, Sphingosine 1-phosphate receptor 3 (Homo sapiens, UniProt Q99500)
# T5 sequence (Q99500 whole entry): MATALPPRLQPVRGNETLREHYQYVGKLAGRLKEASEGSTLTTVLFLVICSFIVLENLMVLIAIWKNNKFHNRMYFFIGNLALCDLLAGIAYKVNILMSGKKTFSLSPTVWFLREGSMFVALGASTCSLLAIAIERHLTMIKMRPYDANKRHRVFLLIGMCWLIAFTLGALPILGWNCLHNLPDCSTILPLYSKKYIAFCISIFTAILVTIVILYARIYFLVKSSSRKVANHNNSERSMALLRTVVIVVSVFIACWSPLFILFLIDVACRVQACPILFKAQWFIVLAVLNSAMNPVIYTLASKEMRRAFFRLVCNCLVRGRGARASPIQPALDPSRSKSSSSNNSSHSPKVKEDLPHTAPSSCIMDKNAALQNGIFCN
# Assay: Effective concentration against sphingosine 1-phosphate receptor 3 determined by a [c-35S]-GTP binding assay
row,Compound,EC50 [nM]
1,CCCCCCCCc1ccc(-c2c[nH]c(C(N)(CO)COP(=O)(O)O)n2)cc1 (centres undefined),630
2,CCCCCCCCc1ccc(-c2c[nH]c(C(C)(N)COP(=O)(O)O)n2)cc1 (centres undefined),780
3,CCCCCCCCc1ccc(-c2c[nH]c([C@H](N)COP(=O)(O)O)n2)cc1,1700

# Biological target: T3, Sphingosine 1-phosphate receptor 4 (Homo sapiens)
# Assay: Maximal efficacy against sphingosine 1-phosphate receptor 4 determined by a [c-35S]-GTP binding assay
row,Compound,Emax
1,CCCCCCCCc1ccc(-c2c[nH]c(C(N)(CO)COP(=O)(O)O)n2)cc1 (centres undefined),0.87
2,CCCCCCCCc1ccc(CCC(N)(CO)COP(=O)(O)O)cc1 (centres undefined),0.78
3,CCCCCCCCc1ccc(-c2c[nH]c(C(C)(N)COP(=O)(O)O)n2)cc1 (centres undefined),0.94
4,CCCCCCCCc1ccc(-c2c[nH]c([C@H](N)COP(=O)(O)O)n2)cc1,1
5,CCCCCCCCCCCCC/C=C/[C@@H](O)[C@@H](N)COP(=O)(O)O,1

# Biological target: T1, Sphingosine 1-phosphate receptor 5
# Assay: Maximal efficacy against sphingosine 1-phosphate receptor 5 determined by a [c-35S]-GTP binding assay
row,Compound,Emax
1,CCCCCCCCc1ccc(-c2c[nH]c(C(C)(N)CO)n2)cc1 (centres undefined),0
2,CCCCCCCCc1ccc(-c2c[nH]c(C(N)(CO)COP(=O)(O)O)n2)cc1 (centres undefined),0.66
3,CCCCCCCCc1ccc(CCC(N)(CO)COP(=O)(O)O)cc1 (centres undefined),0.56
4,CCCCCCCCc1ccc(-c2c[nH]c(C(C)(N)COP(=O)(O)O)n2)cc1 (centres undefined),0.72
5,CCCCCCCCc1ccc(-c2c[nH]c([C@H](N)COP(=O)(O)O)n2)cc1,0.73
6,CCCCCCCCCCCCC/C=C/[C@@H](O)[C@@H](N)COP(=O)(O)O,1

# Biological target: T2, Sphingosine 1-phosphate receptor 1
# Assay: Maximal efficacy against sphingosine-1-phosphate receptor 1 determined by a [c-35S]-GTP binding assay
row,Compound,Emax
1,CCCCCCCCc1ccc(-c2c[nH]c(C(C)(N)CO)n2)cc1 (centres undefined),0
2,CCCCCCCCc1ccc(-c2c[nH]c(C(N)(CO)COP(=O)(O)O)n2)cc1 (centres undefined),0.91
3,CCCCCCCCc1ccc(CCC(N)(CO)COP(=O)(O)O)cc1 (centres undefined),1
4,CCCCCCCCc1ccc(-c2c[nH]c(C(C)(N)COP(=O)(O)O)n2)cc1 (centres undefined),0.88
5,CCCCCCCCc1ccc(-c2c[nH]c([C@H](N)COP(=O)(O)O)n2)cc1,0.75
6,CCCCCCCCCCCCC/C=C/[C@@H](O)[C@@H](N)COP(=O)(O)O,1

# Biological target: T5, Sphingosine 1-phosphate receptor 3
# Assay: Maximal efficacy against sphingosine 1-phosphate receptor 3 determined by a [c-35S]-GTP binding assay
row,Compound,Emax
1,CCCCCCCCc1ccc(-c2c[nH]c(C(N)(CO)COP(=O)(O)O)n2)cc1 (centres undefined),0.21
2,CCCCCCCCc1ccc(CCC(N)(CO)COP(=O)(O)O)cc1 (centres undefined),0.5
3,CCCCCCCCc1ccc(-c2c[nH]c(C(C)(N)COP(=O)(O)O)n2)cc1 (centres undefined),0.53
4,CCCCCCCCc1ccc(-c2c[nH]c([C@H](N)COP(=O)(O)O)n2)cc1,0.56
5,CCCCCCCCCCCCC/C=C/[C@@H](O)[C@@H](N)COP(=O)(O)O,1

# Biological target: T4, Sphingosine 1-phosphate receptor 2
# Assay: Maximal efficacy against sphingosine 1-phosphate receptor 2 determined by a [c-35S]-GTP binding assay; no agonist activity
row,Compound,Emax
1,CCCCCCCCc1ccc(-c2c[nH]c(C(C)(N)CO)n2)cc1 (centres undefined),0

# Biological target: T5, Sphingosine 1-phosphate receptor 3
# Assay: Maximal efficacy against sphingosine 1-phosphate receptor 3 determined by a [c-35S]-GTP binding assay; no agonist activity
row,Compound,Emax
1,CCCCCCCCc1ccc(-c2c[nH]c(C(C)(N)CO)n2)cc1 (centres undefined),0

# Biological target: T4, Sphingosine 1-phosphate receptor 2
# Assay: Maximal efficacy against sphingosine 1-phosphate receptor 2 determined by a [c-35S]-GTP binding assay
row,Compound,Emax
1,CCCCCCCCc1ccc(-c2c[nH]c(C(N)(CO)COP(=O)(O)O)n2)cc1 (centres undefined),0.95
2,CCCCCCCCc1ccc(CCC(N)(CO)COP(=O)(O)O)cc1 (centres undefined),0
3,CCCCCCCCc1ccc(-c2c[nH]c(C(C)(N)COP(=O)(O)O)n2)cc1 (centres undefined),0
4,CCCCCCCCc1ccc(-c2c[nH]c([C@H](N)COP(=O)(O)O)n2)cc1,0
5,CCCCCCCCCCCCC/C=C/[C@@H](O)[C@@H](N)COP(=O)(O)O,1

# Biological target: T6, Sphingosine 1-phosphate receptor 4 (Homo sapiens, UniProt O95977)
# T6 sequence (O95977 whole entry): T3 sequence (whole entry)
# Assay: Effective concentration against sphingosine 1-phosphate receptor 4 determined by a [c-35S]-GTP binding assay
row,Compound,EC50 [nM]
1,CCCCCCCCc1ccc(-c2c[nH]c(C(N)(CO)COP(=O)(O)O)n2)cc1 (centres undefined),160
2,CCCCCCCCc1ccc(CCC(N)(CO)COP(=O)(O)O)cc1 (centres undefined),41
3,CCCCCCCCc1ccc(-c2c[nH]c(C(C)(N)COP(=O)(O)O)n2)cc1 (centres undefined),91
4,CCCCCCCCc1ccc(-c2c[nH]c([C@H](N)COP(=O)(O)O)n2)cc1,400
